According to patent US7771978B2, “β1,4mannosyltransferases” (priority 2003, dated 2010):
Where two headings read alike, the source gives them in different places.

B1: egghead: GDP-D-mannose: β-D-glucose-R 4-β-D-mannosyltransferase, SEQ ID NO. 1 (protein)
chain: MNSTTKHLLHCTLLITVIVTFEVFSGGIKIDENSFTLVDPWTEYGQLATVLLYLLRFLTLLTLPQVLFNFCGLVFYNAFPEKVVLKGSPLLAPFICIRVVTRGDFPDLVKTNVLRNMNTCLDTGLENFLIEVVTDKAVNLSQHRRIREIVVPKEYKTRTGALFKSRALQYCLEDNVNVLNDSDWIVHLDEETLLTENSVRGIINFVLDGKHPFGQGLITYANENVVNWLTTLADSFRVSDDMGKLRLQFKLFHKPLFSWKGSYVVTQVSAERSVSFDNGIDGSVAEDCFFAMRAFSQGYTFNFIEGEMYEKSPFTLLDFLQQRKRWLQGILLVVHSKMIPFKHKLLLGISVYSWVTMPLSTSNIIFAALYPIPCPNLVDFVCAFIAAINIYMYVFGVIKSFSLYRFGLFRFLACVLGAVCTIPVNVVIENVAVIWGLVGKKHKFYVVQKDVRVLETV
modifications: Drosophila melanogaster

Molecular target: T1, Egghead β1-4-mannosyltransferase (Drosophila melanogaster, UniProt O01346)
T1 construct: a secreted version of egghead was prepared as described for the full length construct; made in house; host or cells: baculovirus-infected Sf9 and High Five insect cells (microsomal fractions)
T1 sequence (O01346 1-457): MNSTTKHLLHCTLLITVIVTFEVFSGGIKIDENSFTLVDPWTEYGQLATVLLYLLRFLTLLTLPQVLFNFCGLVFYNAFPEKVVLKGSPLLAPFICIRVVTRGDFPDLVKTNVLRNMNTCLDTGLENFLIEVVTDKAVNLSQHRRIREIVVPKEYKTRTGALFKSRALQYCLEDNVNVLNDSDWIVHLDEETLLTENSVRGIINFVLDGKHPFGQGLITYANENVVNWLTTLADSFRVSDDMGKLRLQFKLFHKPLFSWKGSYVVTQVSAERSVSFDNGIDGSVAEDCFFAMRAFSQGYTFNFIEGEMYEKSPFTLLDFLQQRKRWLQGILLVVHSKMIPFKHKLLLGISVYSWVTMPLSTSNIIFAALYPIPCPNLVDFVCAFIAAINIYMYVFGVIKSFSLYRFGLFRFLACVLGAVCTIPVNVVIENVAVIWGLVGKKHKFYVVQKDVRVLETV
Assay: Egghead mannosyltransferase enzyme assay with soluble acceptor and donor substrates (microsomal fractions)
Format: biochemical
Conditions: for Substrate specificities of Egghead β1-4-mannosyltransferase, activity at 1 mM: acceptor substrate 1 mM; for Substrate specificities of Egghead β1-4-mannosyltransferase, activity at 1 mM / Substrate specificities of Egghead β1-4-mannosyltransferase, activity at 5 mM: microsomes of pVL-Egghead infected High Five cells, GalNAc-T4 background subtracted; for Substrate specificities of Egghead β1-4-mannosyltransferase, activity at 5 mM: acceptor substrate 5 mM; for effect of divalent cation salt on enzyme activity: addition of 5 to 10 mM; for acceptor substrate activity (in words): microsomal fractions of High Five cells; for donor substrate utilisation by egghead (in words): donor sugar nucleotides tested under similar conditions
Procedure: Initial assays of activity included a screen with high concentrations of monosaccharide substrates and different donor substrates.
An expression construct of the full coding region of egghead was prepared by RT-PCR using D. melanogaster mRNA and the sense primer Egh001 (5′-[…]-3′, SEQ ID NO: 4) with a BglII restriction site and the anti-sense primer Egh002 (5′-[…]-3′, SEQ ID NO: 5) with a XbaI restriction site. The resulting 1.1 Kb fragment was cloned into the BglII/XbaI sites of pVL1393 (PharMingen) and pVL1393-MYC. Furthermore an expression construct for a secreted version of egghead was prepared as described for the full length construct but using sense primer Egh003 (5′[…]-3′, SEQ ID NO: 6) with a BglII restriction site and the anti-sense primer Egh002. The resulting 1 Kb fragment was cloned into pAcGP67 Baculo-virus expression vector. Expression constructs pVL-egghead-full and pVL-egghead-Myc-full and pAcGP67-egghead-sol were co-transfected with Baculo-Gold™ DNA (Pharmingen) in Sf9 cells as described (12). Control constructs included pVL-GalNAc-T4-full (8) and pVL-brainiac-full (7). Standard enzyme assays were performed in 50 μl reaction mixtures containing 25 mM HEPES-KOH (pH 7.4), 10 mM MgCl2, 0.1% n-octylgalactoside (Sigma), and 100 μM GDP-[^14C]-Man (2,000 cpm/nmol) (Amersham), and varying concentration of acceptor substrates (purchased from Fluka, Merck, Sigma and Toronto Research Chemicals Inc; see Table I for structures). Assays with brainiac were carried out in the same reaction mixture except for addition of UDP-[^14C]GlcNAc (3,000 cpm/nmol) (Amersham) and MnCl2. Enzyme sources were microsomal fractions of baculo-virus infected Sf9 and High Five™ cells prepared essentially as described by Weis et al. (1998). Briefly, cells were lysed in lysis buffer (25 mM Tris-HCl pH 7.4, 250 mM Sucrose), after incubation 30 min on ice cells were homogenized and lysate centrifuged at 1000×G. Glycerol were added to 20% and membrane pellets were obtained by 100.000×g. Pellets were used at 10 mg/ml (Protein concentration determined by BCA, Pierce). Reaction products of soluble acceptors were quantified by chromatography on Dowex AG1-X8 (Sigma). Assays with glycosphingolipids included 5 mM 2-Acetamido-2-deoxy-D-Glucono-1,5-lactone (inhibitor of hexosaminidase activity), and products were purified on octadecyl-silica cartridges (Supelco) and analyzed by high performance thin-layer chromatography followed by autoradiography.

[1] = acceptor substrate, GDP-Man donor, read-out: apparent Km of acceptor substrate

Molecule	Substrate specificities of Egghead β1-4-mannosyltransferase, activity at 1 mM (GDP-Man donor) [nmol/h/mg]	Substrate specificities of Egghead β1-4-mannosyltransferase, activity at 5 mM (GDP-Man donor) [nmol/h/mg]	further results
O=[N+]([O-])c1ccc(O[C@@H]2O[C@H](CO)[C@@H](O)[C@H](O)[C@H]2O)cc1 [Glcβ1-pNph]	378.6	561.4	Km [1]: 1100 ± 300 µM
[Ca+2].[Cl-].[Cl-] [CaCl2]	–	–	effect of divalent cation salt on enzyme activity: had no effect
CCCCCCCCO[C@@H]1O[C@H](CO)[C@@H](O[C@@H]2O[C@H](CO)[C@@H](O)[C@H](O)[C@@H]2O)[C@H](O)[C@H]1O [Manβ1-4Glcβ1-n-Octyl]	0.0	0.0	acceptor substrate activity (in words) (GDP-Man donor): no activity
CCCCCCCCO[C@H]1O[C@H](CO)[C@@H](O)[C@H](O)[C@H]1O [Glcα1-n-Octyl]	3.6	6.5	–
CC(=O)N[C@H]1[C@@H](OP(=O)(O)OP(=O)(O)OC[C@H]2O[C@@H](n3ccc(=O)[nH]c3=O)[C@H](O)[C@@H]2O)O[C@H](CO)[C@H](O)[C@@H]1O [UDP-GalNAc]	–	–	donor substrate utilisation by egghead (in words): did not utilize
Cc1cc(=O)oc2cc(O[C@@H]3O[C@H](CO)[C@@H](O)[C@H](O)[C@@H]3O)ccc12 [Manβ1-MeUmb]	97	171.4	–
CC(=O)N[C@H]1[C@H](Oc2ccc3c(C)cc(=O)oc3c2)O[C@H](CO)[C@@H](O)[C@@H]1O [GlcNAcβ1-MeUmb]	0.2	0.0	–
O=C[C@H](O)[C@@H](O)[C@H](O)[C@H](O)CO [D-Glucose]	–	–	acceptor substrate activity (in words) (GDP-Man donor): marked increase in GDP-Man transferase activity
Cc1cc(=O)oc2cc(O[C@@H]3OC[C@@H](O)[C@H](O)[C@H]3O)ccc12 [Xylβ1-MeUmb]	0.0	–	–
CCCCCCCCO[C@@H]1O[C@H](CO)[C@H](O)[C@H](O)[C@H]1O [n-octylgalactoside]	–	–	effect of n-octylgalactoside on egghead activity (3.4 mM (0.1%), microsomal membranes): activated
C[C@@H]1O[C@H](Oc2ccc([N+](=O)[O-])cc2)[C@@H](O)[C@H](O)[C@@H]1O [Fucβ1-pNph]	0.0	0.0	–
[2H]C([2H])([2H])C([2H])([2H])C([2H])([2H])C([2H])([2H])C([2H])([2H])C([2H])([2H])C([2H])([2H])C([2H])([2H])OC1([2H])O[C@]([2H])(C([2H])([2H])O)[C@@]([2H])(O)[C@]([2H])(O)[C@@]1([2H])O (stereo partly drawn) [Glcβ1-n-Octyl, n-octyl-β-glucoside]	442.8	732.6	–
Cc1cc(=O)oc2cc(O[C@@H]3O[C@H](CO)[C@@H](O)[C@H](O)[C@H]3O)ccc12 [Glcβ1-MeUmb]	330.0	611.4	–
Cc1cc(=O)oc2cc(O[C@@H]3O[C@H](CO)[C@H](O)[C@H](O)[C@H]3O)ccc12 [Galβ1-MeUmb]	0.0	–	–
[Cl][Mn][Cl] [MnCl2]	–	–	effect of divalent cation salt on enzyme activity: activated
CCCCCCCCO[C@@H]1O[C@H](CO)[C@H](O)[C@H](O)[C@H]1O [Galβ1-n-Octyl]	0.0	0.0	–
CC(=O)N[C@H]1[C@H](Oc2ccc([N+](=O)[O-])cc2)O[C@H](CO)[C@H](O)[C@@H]1O [GalNAcβ1-pNph]	0.0	–	–
C[C@H](CCC(=O)NCCC[N+](C)(C)CCCS(=O)(=O)[O-])[C@H]1CC[C@H]2[C@@H]3[C@H](O)C[C@@H]4C[C@H](O)CC[C@]4(C)[C@H]3C[C@H](O)[C@]12C [CHAPS]	–	–	effect of CHAPS on egghead activity (concentration not given, to a lesser extent than n-octylgalactoside): activated
OC[C@H]1O[C@H](OCc2ccccc2)[C@@H](O)[C@@H](O)[C@@H]1O [Manα-1-Bzl]	0.0	–	–
Triton X-100	–	–	effect of detergent on egghead activity (detergent at 0.1%, microsomal membranes): inhibited
CCCCCCCCOC1O[C@H](CO)[C@@H](O)[C@H](O)[C@H]1O (stereo partly drawn) [Glcβ1-n-Octyl, n-octyl-β-glucoside]	–	–	Km [1]: 670 ± 80 µM
O=[N+]([O-])c1ccc(O[C@@H]2O[C@H](CO)[C@H](O)[C@H](O)[C@H]2O)cc1 [Galβ1-pNph]	0.0	–	–
CC(=O)N[C@H]1[C@@H](OP(=O)(O)OP(=O)(O)OC[C@H]2O[C@@H](n3ccc(=O)[nH]c3=O)[C@H](O)[C@@H]2O)O[C@H](CO)[C@@H](O)[C@@H]1O [UDP-GlcNAc]	–	–	donor substrate utilisation by egghead (in words): did not utilize
Nc1nc2c(ncn2[C@@H]2O[C@H](COP(=O)(O)OP(=O)(O)O[C@H]3O[C@H](CO)[C@@H](O)[C@H](O)[C@@H]3O)[C@@H](O)[C@H]2O)c(=O)[nH]1 [GDP-Man, GDP-mannose]	–	–	Km (donor substrate, with n-octyl-β-Glc acceptor substrate, read-out: apparent Km for GDP-Man): 58 ± 6.2 µM; donor substrate utilisation by egghead (in words): strict donor substrate specificity
CC(=O)N[C@H]1C(O)O[C@H](CO)[C@@H](O[C@@H]2O[C@H](CO)[C@@H](O)[C@H](O)[C@@H]2O)[C@@H]1O (some centres unmarked) [Manβ1-4GlcNAc]	0.0	0.0	acceptor substrate activity (in words) (GDP-Man donor): no activity
[Cl-].[Cl-].[Mg+2] [MgCl2]	–	–	effect of divalent cation salt on enzyme activity: activated
O=[N+]([O-])c1ccc(O[C@@H]2O[C@H](CO)[C@@H](O)[C@H](O)[C@@H]2O)cc1 [Manβ1-pNph]	98.6	182.9	Km [1]: 2300 ± 500 µM
CC(=O)N[C@H]1[C@H](Oc2ccc([N+](=O)[O-])cc2)O[C@H](CO)[C@@H](O)[C@@H]1O [GlcNAcβ1-pNph]	0.0	–	–
Cc1cc(=O)oc2cc(O[C@@H]3O[C@H](CO)[C@@H](O)[C@H](O)[C@H]3O)ccc12 [Glcα1-MeUmb]	1.2	12.9	–
B1	–	–	pH optimum of egghead activity (microsomal membranes): 7-8 pH
